Results: patent US20070231288A1, “COSMETIC USE OF D-RIBOSE AND METHOD THEREOF” (LM Cosmetics, priority 2006, published 2007)

Legend:
[1] = test system: normal human dermal fibroblasts in culture (NHDF); assay: Effect of D-ribose on in vitro skin cell respiration (BD Oxygen Biosensor System); assay type: cell-based; settings: 0.05% D-ribose, after 2 hours of contact
Procedure: The inventors measured the effect of D-ribose on the mitochondrial and cytosolic respiration of normal human dermal fibroblasts in culture (NHDF). The cells used are fibroblasts cultured at 37° C., 5% CO2, in DMEM medium, 10% FCS (foetal calf serum). The NHDF cultured in monolayer are placed in suspension and distributed in the wells of a special plate of the “BD Oxygen Biosensor System” kit. The bottom of the well is constituted by a membrane on which a molecule is grafted the fluorescence of which is inhibited by the oxygen dissolved in the incubation medium. The fluorescence increases in proportion to the oxygen consumed by the cells. 0.05% D-ribose is added in six wells. The intensity of fluorescence is measured in kinetic mode. The rate of respiration is calculated from measurements of the intensity of fluorescence.

[2] = test system: normal human epidermal fibroblasts in culture; assay: Effect of D-ribose on in vitro production of ATP by skin cells under hypoxia; assay type: cell-based; settings: 0.05% D-ribose, after 6 hours of severe hypoxia (oxygen <2%), 24 h pre-treatment
Procedure: The inventors measured the effect of D-ribose on the production of ATP by the normal human epidermal fibroblasts in culture, under conditions of hypoxia. The cellules used are flask inoculations of normal human epidermal fibroblasts in DMEM medium with 10% FCS, incubation at 37° C., 5% CO2 and RH>95% up to 80% confluency. On Day 1, a first measurement of the level of ATP is taken on the untreated, unstressed NHDF. Pre-treatment for 24 hours with 0.05% of ribose versus an untreated control condition, 2 series in hexaplicate according to conditions. On Day 2, before the induction of hypoxia: stopping a series in order to measure the ATP level before hypoxia over all conditions (treated and untreated). The cells of the 2nd series were placed in suspension, the culture medium was renewed by DMEM 10% FCS supplemented with Hepes buffer (to maintain the pH at physiological conditions during hypoxia) and with EDTA (to prevent cell agglutination). The cells are placed in a incubator adjusted to 37° C., RH>95% the atmosphere of which has previously been replaced with nitrogen. Incubation for 6 hours under conditions of severe hypoxia (oxygen <2%) in the presence of 0.05% D-ribose versus an untreated control condition. Recovery of the cells and measurement of the quantity of ATP in the treated and untreated cells.

Compound: O=C[C@H](O)[C@H](O)[C@H](O)CO [D-ribose]
- increase in the cytosolic respiration [1]: 37%
- increase in the mitochondrial respiration [1]: 31%
- ATP level re-established [2]: 19%
